One substance from patent US12570975B2, “Composition for diagnosis or treatment of a condition associated with increased activity of EIF4E comprising an EIF4E inhibitor” (SoVarGen Co., Ltd., priority 2019, dated 2026) can be followed below.

In data set [1] the test system is eIF4E mRNA. Kind of data set: Inhibitory concentration (IC50) against eIF4E mRNA, real-time PCR, HEK293T. The format is cell-based, human. The procedure: In order to calculate IC50 values for ASO sequences, ASO candidates are transfected at different concentrations (20 nM, 80 nM, 320 nM) into the human cell line HEK293T (human) with the aid of iN-fect™ in vitro transfection reagent (15081, iNtRON, Republic of Korea). Twenty four hours after ASO transfection, the cells were harvested and analyzed for eIF4E mRNA expression reduction by real-time PCR. Relative eIF4E mRNA expression was normalized to the expression level using GAPDH as an internal control and was evaluated using the 2^−ΔΔCq method.
For comparison of inhibitory concentrations (IC50) among ASO candidates, a dose-response curve was derived by normalized nonlinear regression using Prism8 program (GraphPad Software, USA) (FIG. 16e).
A general note: In qPCR the cycle at which signal appears reflects the starting amount.

The subject of data set [2] is epilepsy models (mTOR p.C1483Y or mTOR p.L2427P). Briefly: Seizure monitoring after ICV injection of ASO in FMCD epilepsy models. The following applies: ICV injection 100-500 μg, day 3 to day 70 after injection. The format is in vivo, mouse. As for the experimental part: (§1) For this experiment, animal models established using pCIG-mTOR p.C1483Y-IRES-EGFP and pCIG-mTOR p.L2427P-IRES-EGFP of Example 1 were used while animal models established with pCIG-mTOR (WT)-IRES-EGFP […] served as a control. The ASOs were each intracerebroventricularly injected (ICV injection) at a dose of 100-500 μg to the brains of the mice that had been identified to undergo epileptic seizure. From day 3 after ASO injection to up to day 70, 12-hour video were recorded for seizure monitoring 2-3 times a week per mouse.

Data set [3] relates to eIF4E. Briefly: eIF4E expression in cerebral cortex, cerebellum and spinal cord after ICV injection of ASO. The following applies: mouse, in vivo.
Description: Each of panels B to D of FIG. 17 and panels E and F of FIG. 18 represents “normal mice”, whereas panel A of FIG. 17 and panels G and H of FIG. 18 represents “FMCD animal models.”
as §1
After intraventricular injection of the ASO candidates to the animal models, eIF4E expression was reduced in the cerebral cortex, the cerebellum, and the spinal cord, with the consequent reduction in seizure frequency.

The subject of data set [4] is ADK, IRSp53, and CREB1. Kind of data set: Immunofluorescence of ADK, IRSp53 and CREB1 after ASO injection. The format is in vivo, mouse. The following applies: week 4-5 after ICV injection. As for the experimental part: Week 4-5 after intracerebroventricular injection of ASO into the animal models established using pCIG-mTOR mutant-IRES-EGFP vector of Example 1, the brain was removed, fixed, sectioned, and immunostained.
Immunostaining with antibodies against ADK, CREB1, IRSp53, and eIF4E and Imaging with fluorescence were conducted in the same manner as in Example 2.

Data set [5] relates to GFP-labeled mutant cells of FMCD animal models. Briefly: Neuronal (mutant) cell size after ICV injection of ASO. The format is in vivo, mouse. The note with it: intractable epilepsy models, week 4-5 after ICV injection. The procedure:
Week 4-5 after intracerebroventricular injection of ASO into the FMCD animal models established using pCIG-mTOR mutant-IRES-EGFP vector of Example 1, the brain was removed, fixed, sectioned, and immunostained. For neuronal cell size (FIG. 22), GFP (green)-labeled mutant cells (ASO control or ASO eIF4E) were measured for size in the obtained mouse brain tissues.

Data set [6] concerns C57BL/6J mice. The following applies: mouse, in vivo. The procedure: In this regard, ASO was administered by ICV injection. The ASO used in this experiment was ASO #77.
The 3-Chamber test measures social interaction and preference for social novelty. This apparatus consisted of three chambers with dimensions of 12×20×26 cm for the center chamber and dimensions of 14×20×26 cm for the opposite side chambers. Each of the opposite side chambers included a plastic cage (11 cm in diameter, 2.15 cm in height) for an object or stranger mouse in a corner. This experiment consisted of three sessions of habituation (10 min), exploring object/mouse (10 min), and exploring familiar/new mouse (10 min). In the second session, a WT stranger mouse was randomly placed in a plastic cage while the opposite plastic cage was empty. The mouse was allowed to freely explore the whole apparatus. The time spent in each chamber was measured and then used for the subsequent social interaction test. In the last session, a new WT stranger was placed in the empty plastic cage.

Data set [7] deals with FMCD and epilepsy animal models (mTOR-p.C1483Y, mTOR-p.L2427P). Kind of data set: Social avoidance test, FMCD epilepsy models. The format is in vivo, mouse. The note with it: ASO-eIF4E models compared to ASO-control models. The procedure:
The arena was a black box (400×400 mm).
(§2) Experiments were performed on the FMCD and epilepsy animal models (mTOR-p.C1483Y, mTOR-p.L2427P) of Example 7-1 and the control normal animal models (mTOR-WT). The same sheIF4E as that described in Example 2 was used. Week 2 after sheIF4E injection, the handling was performed in the animals. Week 3 after sheIF4E injection, the animals were subjected to the behavioral tests.
(§3) The epilepsy animal models were subjected to the substantially same behavioral abnormality assay as in Example 6. The results are depicted in FIGS. 28 and 29.
(§4) Briefly, ASO #77 was administered by ICV injection to the FMCD and epilepsy animal models were generated with the pCIG-mTOR mutant-IRES-EGFP of Example 1. ASO #77 was evaluated for therapeutic potential for neuropsychiatric disorder accompanying the FMCD epilepsy animal models in the substantially same manner as in Example 6.

Data set [8] has the same test system. Kind of data set: Marble burying test, FMCD epilepsy models. The format is in vivo, mouse. The note with it: ASO-eIF4E models compared to ASO-control models. As for the experimental part: A mouse was placed in the cage.
as §2, §3, §4

The test system is the same in data set [9]. Kind of data set: Sucrose preference test, FMCD epilepsy models. The format is in vivo, mouse. The following applies: ASO-eIF4E models compared to ASO-control models. As for the experimental part: Each of mice was habituated for 3-5 days in a cage with two selectable water bottles presented. Thereafter, the mice were each placed in the same cage as the habituation cage at the day of experiment. The mice were presented with two dual bottles, one containing tap water and the other containing 1% sucrose solution. Water and sucrose solution intake was measured after 24 hours and sucrose preference was calculated according to volume of sucrose intake/total volume of fluid intake×100%.
The same sheIF4E as that described in Example 2 was used. Week 2 after sheIF4E injection, the handling was performed in the animals. Week 3 after sheIF4E injection, the animals were subjected to the behavioral tests.
The epilepsy animal models were subjected to the substantially same behavioral abnormality assay as in Example 6.
as §4

For data set [10], the system named is mutant-expressing cells in the brain tissue. The note with it: mouse, in vivo.
The conditions of data set [11]: over 8 weeks after ASO injection, 8-week-old mTOR mutation C57BL/6J mice.
In data set [12] the test system is C57BL/6J mice. The note with it: mouse, in vivo. The source holds these as a separate data set.

In the case of “ASO #77: eIF4E-targeting antisense oligonucleotide of SEQ ID NO: 77, 2′-MOE gapmer, all phosphorothioate linkages (antisense GATCCTTCACCAATGTTACA; all phosphorothioate, sugars by position and methylation of C not given here; 2'-MOE gapmer)”, the 50% inhibitory concentration (IC50) (in general, the concentration at which inhibition is half-maximal) in [1] (HEK293T, 20, 80, 320 nM, 24 h after transfection, read-out: IC50 against eIF4E mRNA expression) was 53.8 nM. Also, the “eIF4E mRNA expression compared to the mismatch ASO” value in data set [1] (HEK293T, at all of the doses (20 nM, 80 nM, 320 nM)) was “inhibited”. Moreover, the seizure frequency entry in [2] was “remarkably reduced”. In addition, the “eIF4E expression in animal models” value in data set [3] is recorded as “reduce eIF4E expression”. For the same substance, the “expression of ADK, IRSp53, and CREB1 in the mutation cells” value in [4] is “rescue of the expression of ADK, IRSp53, and CREB1 to a normal level”. Moreover, the mutant cell size result in data set [5] was “therapeutic effects”. The “time spent in sniffing zone (index of sociality)” value in [6] is reported as “not changed”. The “time spent to interact with the stranger mouse (social ability and depression)” value in data set [7] is given as “increased”. The “number of buried marbles (repetitive behavior)” value in [8] is “increased”. Also, the “% sucrose preference” value in [9] was “increased”. The “delivery into mutant-expressing cells in the brain tissue” value in data set [10] was “effectively delivered”. Moreover, the body weight entry in [11] is reported as “recovered to normal conditions”. For the same substance, the “number of buried marbles (index of repetitive behavior)” value in [12] was “not changed”.
